Assay results reported in paper PMC11956017, “Design of Benzyl-triazolopyrimidine-Based NADPH Oxidase Inhibitors Leads to the Discovery of a Potent Dual Covalent NOX2/MAOB Inhibitor” (Journal of Medicinal Chemistry, 2025).
“Also recorded” adds a separate entry of the source. Marks after values point to notes of the source that are not given here.

Columns and labels:
monocytic U937 = tested on: monocytic U937; design: method as in PMID 37884805; details: cited from earlier work
NOX2 = NOX2 (Homo sapiens, UniProt P04839); design: NOX2 was expressed as native protein in X-CGD PLB-985 cells transduced with the RD114 pseudotyped MFGS-NOX2 vector; expressed in transfected cells; host or cells: X-CGD PLB-985 cells transduced with MFGS-NOX2; isolated membranes; Cytosolic proteins made in E. coli; details: cited from earlier work
NOX1 = details: cited from earlier work
NOX5 = details: cited from earlier work
NOX4 = details: cited from earlier work
BV2 cells [1] = test: MTT viability assay in BV2 cells; format: cell-based, murine; details: 10 μM, LPS/IFN-γ stimulation, 48 h
Description: BV2 murine microglial cells were cultured in DMEM supplemented with 10% heat-inactivated FBS, 100 IU/mL penicillin G, 100 mg/mL streptomycin, and 2.5 mg/mL amphotericin B and grown at 37 °C in 5% CO2 and a humidified atmosphere. […] After 30 min, LPS 100 ng/mL and IFN-γ 20 ng/mL were added to the medium for an additional 48 h.
Cell viability was determined by the MTT assay. Briefly, MTT (dissolved in PBS with a final concentration of 0.5 mg/mL) was added to the medium culture. After 2 h of incubation, the cells were mixed with DMSO and shaken for 10 min. Finally, the absorption of the samples was read by regulating the 570 nm filter as the main wavelength and the 630 nm filter as the referenced wavelength. The blank was subtracted from all samples to obtain pure cellular absorption. Results are expressed as the percentage of cell survival, taking 100% of the cells treated with the vehicle.

Purified MAOA = details: read-out: IC50 Purified MAOA; cited from earlier work
BV2 cells [2] = test: ROS detection with CellROX Deep Red in BV2 cells; format: cell-based, murine; details: 10 μM, LPS/IFN-γ stimulation, 48 h
Description: BV2 murine microglial cells were cultured in DMEM supplemented with 10% heat-inactivated FBS, 100 IU/mL penicillin G, […] streptomycin, and […] amphotericin B and grown at 37 °C in 5% CO2 and a humidified atmosphere. […] After 30 min, LPS 100 ng/mL and IFN-γ 20 ng/mL were added to the medium for an additional 48 h. After treatment, BV2 cells were incubated with a CellROX Deep Red reagent (cat. no. C10422) at 5 μM and incubated for 30 min at 37 °C as indicated by the manufacturer protocol. ROS levels were measured by a spectrofluorometer, taking as 100% the median fluorescence intensity of cells treated with the vehicle.

Purified MAOB = details: read-out: IC50 Purified MAOB; cited from earlier work
[3] = tested on: dehydrogenase domain of csNOX5; test: NADPH depletion assay on csNOX5 dehydrogenase domain; format: biochemical, Cylindrospermum stagnale; details: 100 μM inhibitor; 1 μM purified protein, 250 μM NADPH
BV2 cells [4] = test: qRT-PCR of iNOS, IL-1β and IL-6 transcripts in BV2 cells; format: cell-based, murine; details: cells pre-stimulated with LPS/IFN-γ for 24h, then 10 µM compound for 24 h
Description: BV2 murine microglial cells were cultured in DMEM supplemented with 10% heat-inactivated FBS, 100 IU/mL penicillin G, […] streptomycin, and […] amphotericin B and grown at 37 °C in 5% CO2 and a humidified atmosphere. […]
BV2 cells were lysed in a Trizol reagent for isolation of RNA. A reverse transcription reaction was performed in a thermocycler (MJMini personal thermal cycler; Biorad) using an IScript Reverse Transcription Supermix (Biorad) according to the manufacturer’s protocol, under the following conditions: incubation at 25 ° C for 5 min, reverse transcription at 42 ° C for 30 min, and inactivation at 85 ° C for 5 min. Real-time PCR (rtPCR) was carried out in an I-Cycler IQ Multicolor rtPCR detection system (Biorad) using a SsoFast EvaGreen Supermix (Biorad) according to the manufacturer’s instructions. The PCR protocol consisted of 40 cycles of denaturation at 95 ° C for 30 s and annealing/extension at 60 ° C for 30 s. For quantification analysis, the comparative threshold cycle (Ct) method was used. The Ct values from each gene were normalized to the Ct value of GAPDH in the same RNA samples. Relative quantification was performed using the 2^–ΔΔCt method (Schmittgen and Livak, 2008) and expressed as a fold change in arbitrary values. Primers used are as follows: • iNOS fw: […]; rev: […]. • IL-1β fw: […]; rev: […]. • IL-6 fw: […]; rev: […].

human MAOA = target: T1, human MAOA (Homo sapiens, UniProt P21397); test: Purified MAOA, Amplex Red/horseradish peroxidase coupled assay; format: biochemical; details: 70 nM MAOA, 1 mM kynuramine
T1 construct: made in house; host or cells: Pichia pastoris
T1 sequence (P21397 1-527): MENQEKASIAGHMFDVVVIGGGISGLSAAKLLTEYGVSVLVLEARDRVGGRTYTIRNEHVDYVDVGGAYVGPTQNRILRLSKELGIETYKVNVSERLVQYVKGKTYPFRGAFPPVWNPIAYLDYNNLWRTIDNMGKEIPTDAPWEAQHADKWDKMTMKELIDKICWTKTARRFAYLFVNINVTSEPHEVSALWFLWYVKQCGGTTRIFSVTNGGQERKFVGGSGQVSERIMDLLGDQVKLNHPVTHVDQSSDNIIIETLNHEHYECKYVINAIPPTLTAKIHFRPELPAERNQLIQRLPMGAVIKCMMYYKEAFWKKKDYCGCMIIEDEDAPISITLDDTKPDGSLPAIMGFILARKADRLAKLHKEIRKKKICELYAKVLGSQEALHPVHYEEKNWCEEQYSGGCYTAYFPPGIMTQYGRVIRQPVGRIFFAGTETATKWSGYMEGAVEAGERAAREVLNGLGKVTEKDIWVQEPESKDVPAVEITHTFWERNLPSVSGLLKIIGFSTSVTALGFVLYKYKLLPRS
Description: (§1) IC50 values on human MAOA and human MAOB were determined using the Amplex Red/horseradish peroxidase coupled assay. […] Measurements were performed using a ClarioStar plate reader (excitation 572 nm and emission 583 nm) (BMG Labtech). IC50 values were obtained by fitting the percentage of inhibition versus log(inhibitor concentration) using GraphPad software 7.0. The covalent modification of the flavin upon the reaction with the propargylamine-containing inhibitors was monitored spectrophotometrically using a diode array UV/visible spectrophotometer (Agilent Technologies). […] The cofactor covalent modification was monitored over time following the shift of the enzyme-bound flavin (peaks at 370 and 456 nm) to 410 nm (ε410 = 23,500 M^–1 cm^–1) (Figure S10).

human MAOB = target: T2, human MAOB (Homo sapiens, UniProt P27338); test: Purified MAOB, Amplex Red/horseradish peroxidase coupled assay; format: biochemical; details: 10 nM MAOB, 1 mM benzylamine
T2 construct: made in house; host or cells: Pichia pastoris
T2 sequence (P27338 1-520): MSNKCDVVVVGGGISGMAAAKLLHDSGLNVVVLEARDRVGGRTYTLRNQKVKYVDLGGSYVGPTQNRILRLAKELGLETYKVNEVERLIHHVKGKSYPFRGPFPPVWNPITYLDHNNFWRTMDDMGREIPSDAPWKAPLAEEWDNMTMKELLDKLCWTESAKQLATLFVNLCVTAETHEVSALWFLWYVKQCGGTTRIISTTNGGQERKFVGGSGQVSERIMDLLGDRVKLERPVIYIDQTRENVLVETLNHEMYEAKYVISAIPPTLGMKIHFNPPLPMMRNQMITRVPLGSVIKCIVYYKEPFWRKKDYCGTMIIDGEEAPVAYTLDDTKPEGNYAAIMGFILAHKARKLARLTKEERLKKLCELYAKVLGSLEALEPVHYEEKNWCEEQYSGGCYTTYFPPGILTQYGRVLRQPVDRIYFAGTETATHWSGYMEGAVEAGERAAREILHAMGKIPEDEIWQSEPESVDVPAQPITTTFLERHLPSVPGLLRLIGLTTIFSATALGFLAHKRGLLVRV
Description: as §1

In the case of `O=C1c2ccccc2-c2cc(N3CCC4(CC3)OCCO4)nc3cccc1c23` [Compound M41], the “viability of monocytic U937 and other myeloid cancer lines” value (monocytic U937) is given as “reduced the viability”.
For `c1ccc(Cn2nnc3c(Sc4ncco4)ncnc32)cc1` [VAS3947], the IC50 (NOX2) is given as 5.6 µM, the IC50 (NOX1) is given as 86.8 µM and the IC50 (NOX5) is given as 39.2 µM. For the same molecule, the IC50 (NOX4) was 30.5 µM.
For `C#CCN[C@@H]1CCc2ccccc21` [Rasagiline, reference compound], the BV2 cell viability (BV2 cells [1]) is listed as “negligible effects on cells viability”, the IC50 (Purified MAOA) is listed as 700 nM and the “ROS levels in BV2 cells” value (BV2 cells [2]) is listed as “decrease the ROS levels”. For the same molecule, the IC50 (Purified MAOB) was 14 nM.
In the case of `c1ccc(-c2cc(NC3CCNCC3)nc3ccccc23)cc1` [MC4876], the “viability of monocytic U937 and other myeloid cancer lines” value (monocytic U937) is listed as “reduced the viability”.
For `Clc1ncnc2c1nnn2Cc1ccccc1` [Compound 3, 3-Benzyl-7-chloro-3H-[1,2,3]triazolo[4,5-d]pyrimidine], the “% INHIBITION csNOX5 DEHYDROGENASE DOMAIN” value [3] was 23.4 ± 4.8^b %.
For `c1ccc(Cn2nnc3c(Sc4nc5ccccc5o4)ncnc32)cc1` [VAS2870, 3-benzyl-7-(2-benzoxazolyl)thio-1,2,3-triazolo[4,5-d]pyrimidine, reference compound], the “effects on iNOS, IL-1β and IL-6 mRNA without inhibitor pretreatment” value (BV2 cells [4]) was “negligible”, the IC50 (human MAOA) was over 100 µM and the “IC50 Purified MAOA” value (human MAOA) was “ineffective; also recorded: Not detected”. For the same molecule, the IC50 (human MAOB) was over 100 µM, the “IC50 Purified MAOB” value (human MAOB) was “ineffective; also recorded: Not detected” and the “ROS levels in BV2 cells” value (BV2 cells [2]) was “decrease the ROS levels”.
